Laboratory results from patent US7071194B2, “Method for improving respiratory function and inhibiting muscular degeneration” (priority 2000, dated 2006).
“And” between values parts separate entries of the source, which are not always exact repeats. Identical values can stand only once.

Columns and labels:
[1] = rats; cited from earlier work
normal conscious rats = assay: Respiratory function by head-out plethysmograph in normal conscious rats; assay type: in vivo, rat
Description: (§1) Experiments were conducted in unanesthetized, awake, spontaneously breathing rats at 24 hours prior to SCI, at 24 hours p.i. and weekly afterwards at 1,2,3, and 4 weeks p.i. (1) Acclimatization of the Animals. […] Animals were placed in the body cylinder of the plethysmograph (FIG. 1a) for 60 minutes per day for at least 5 days. […] (2) Non-Invasive Measurements of Respiratory Rate, Tidal Volume and Minute Ventilation. Non-invasive measurements of respiratory function in conscious rats were performed with a restrained head-out plethysmograph specially designed for rodents (BUXCO Electronics, Inc., Sharon, Conn.) (FIG. 1a). The plethymograph apparatus has a neck seal that prevents leakage of air from between the animal's neck and the plethymograph opening. Displacement of the thoracic wall produced by the animal's respiratory movements causes changes in the cylinder pressure, which results in air flowing across a pneumotachograph located on the wall of the cylinder. The pressure drop across the pneumotachograph is measured with a pressure transducer and is proportional to the flow. This signal is amplified and integrated into volume. From measurements of volume and flow, a computer and appropriate software provides respiratory parameters, such as respiratory rate (f), tidal volume (Vt), minute ventilation (Ve), peak inspiratory flow, peak expiratory flow, inspiratory time (Ti), expiratory time (Te), and accumulated volume. An additional opening on the wall of the box allows volume calibration by injecting and removing air from the box with a calibrated syringe.
(§2) The noise level in the laboratory was kept to a minimum in order not to startle the animals. Further, the animals were visually isolated from the investigators by means of a chamber made of an opaque material that surrounded and covered the front-end of the body plethysmograph (FIG. 1b). Baseline recordings lasted for 4 minutes. (3) Measurement of Ventilatory Response to Carbon Dioxide. For measurement of the ventilatory response to CO2, animals were exposed to air containing 7% CO2. The animals breathed from a funnel fixed in the front wall of a chamber made of an opaque material (FIG. 1b). The animals were exposed to the gas mixture containing 7% CO2 (mixed with 60% O2 and 33% N2) for 5 minutes with recording of respiratory activity for another 2 minutes (a total recording duration of 7 minutes).
(§3) The 5HT1A receptor antagonist, p-MPPI (RBI, Natick, Mass.) was also dissolved in 0.9% saline and given i.p. in a dose of 3 mg/kg (pH 7.4 and final volume of 0.5 ml). […] Vehicle solution (VEH) was 0.9% saline and also injected at i.p. (pH 7.4; volume: 0.5 ml/rat).

T8 SCI rats = assay: Respiratory function by head-out plethysmograph in conscious rats after T8 contusion SCI; assay type: in vivo, rat
Description: Female Sprague-Dawley rats (250–280 g and 360–390 g; Taconic, Germantown, N.Y.) were anesthetized with 4% chloral hydrate (360 mg/kg, i.p.). An incomplete spinal courd contusion injury was produced at T8 with a weight drop device (10 g×2.5 cm) as previously described (Wrathall et al., 1985). After SCI, manual expression of bladders was performed twice daily until a reflex bladder was established. Animal care also included housing the rats in pairs to reduce isolation-induced stress, maintaining ambient temperature at 22–25° C., and using highly absorbent bedding. No prophylactic antibiotics were given.
as §1, §2, §3
Baseline respiratory function was measured under room air ventilation and after the animal was stabilized inside a boy cylinder (FIGS. 1a and b) for 30 minutes at each time point prior to SCI and after injury. Immediately following the evaluation of baseline respiration, the animals were let to breathe air containing 7% CO2 for 7 minutes to monitor their ventilatory response to CO2 stimulus (Teng et al., 1998a and 1999).

[2] = 7% CO2 at 31′ & 32′ after 8-OH-DPAT 250 μg/kg i.p.
[3] = baseline (room air), 3 & 4 min post 8-OH-DPAT 250 μg/kg i.p.
[4] = baseline (room air), 11 & 12 min post 8-OH-DPAT 250 μg/kg i.p.
[5] = baseline (room air), 21 & 22 min post 8-OH-DPAT 250 μg/kg i.p.
[6] = 24 hours p.i., 8-OH-DPAT 250 μg/kg i.p., time-course study, n=3
[7] = 24 hours post SCI, pre-treated with p-MPPI 3 mg/kg i.p. 20 min before, 7% CO2 at 16′ & 17′ after 8-OH-DPAT
[8] = 24 hours post SCI, pre-treated with p-MPPI 3 mg/kg i.p. 20 min before, baseline, 3 & 4 min post 8-OH-DPAT
[9] = 24 hours post SCI, pre-treated with p-MPPI 3 mg/kg i.p. 20 min before, baseline, 9 & 10 min post 8-OH-DPAT
[10] = 24 h p.i., 7% CO2 at 24 min after 8-OH-DPAT 250 μg/kg i.p.
[11] = 24 h p.i., baseline (room air), 3 & 4 min post 8-OH-DPAT 250 μg/kg i.p.
[12] = 24 h p.i., baseline (room air), 21 & 22 min post 8-OH-DPAT 250 μg/kg i.p.
[13] = 7 d p.i., 7% CO2 at 31′ & 32′ post 8-OH-DPAT 250 μg/kg i.p.
[14] = 7 d p.i., baseline (room air), 3 & 4 min post 8-OH-DPAT 250 μg/kg i.p.
[15] = 7 d p.i., baseline (room air), 21 & 22 min post 8-OH-DPAT 250 μg/kg i.p.

CCCN(CCC)C1CCc2cccc(O)c2C1 (stereo not shown) [8-OH-DPAT, 8-hydroxy-2-(di-n-propylamino)tetralin]
systematic half life (T1/2) [1]: ~50 min | Te (expiratory time) (normal conscious rats; [2]): 0.23 ± 0.03 | Ti (inspiratory time) (normal conscious rats; [2]): 0.19 ± 0.01 | Tv (tidal volume) (normal conscious rats; [2]): 1.50 ± 0.14 mL | Ve (minute ventilation) (normal conscious rats; [2]): 239.3 ± 48.9 mL/min | f (respiratory rate) (normal conscious rats; [2]): 155.6 ± 18.5 breaths/min | duration of increase in baseline Vt (normal conscious rats; 8-OH-DPAT 250 μg/kg i.p.): 4 min | duration of stimulating effect on f (normal conscious rats; 8-OH-DPAT 250 μg/kg i.p., to last minute of observation): ≥ 23 min | Te (expiratory time) (normal conscious rats; [3]): 0.25 ± 0.09↓ | Ti (inspiratory time) (normal conscious rats; [3]): 0.19 ± 0.04 | Tv (tidal volume) (normal conscious rats; [3]): 1.14 ± 0.08↑ ml | Ve (minute ventilation) (normal conscious rats; [3]): 198.6 ± 32.9↑ ml/min | f (respiratory rate) (normal conscious rats; [3]): 177.5 ± 36.2↑ breaths/min | Te (expiratory time) (normal conscious rats; [4]): 0.30 ± 0.07↓ | Ti (inspiratory time) (normal conscious rats; [4]): 0.16 ± 0.02 | Tv (tidal volume) (normal conscious rats; [4]): 0.92 ± 0.05 mL | Ve (minute ventilation) (normal conscious rats; [4]): 138.6 ± 27.6↑ ml/min | f (respiratory rate) (normal conscious rats; [4]): 149.8 ± 26.5↑ breaths/min | Te (expiratory time) (normal conscious rats; [5]): 0.41 ± 0.08↓ | Ti (inspiratory time) (normal conscious rats; [5]): 0.18 ± 0.02 | Tv (tidal volume) (normal conscious rats; [5]): 0.84 ± 0.02 mL | Ve (minute ventilation) (normal conscious rats; [5]): 112.9 ± 15.2↑ ml/min | f (respiratory rate) (normal conscious rats; [5]): 134.4 ± 21.2↑ breaths/min | ventilatory response to 7% CO2 challenge (normal conscious rats; starting at 24 minutes after 8-OH-DPAT): did not significantly alter | effect on SCI-induced abnormal respiratory pattern (T8 SCI rats; 24 hours after SCI, 8-OH-DPAT 250 μg/kg i.p.): promptly and successfully reversed the injury-triggered respiratory abnormalities | duration of initial rise of f above p.i. levels (T8 SCI rats; 24 hours p.i., 8-OH-DPAT 250 μg/kg i.p.): about 20 minutes | time for which a single dose normalized ventilatory response to breathing 7% CO2 (T8 SCI rats; [6]): more than 2 hours | time for which improvement of baseline Ve (room air) was significant (T8 SCI rats; [6]): 1 h | Te (expiratory time) (T8 SCI rats; [7]): 0.32 ± 0.05 | Ti (inspiratory time) (T8 SCI rats; [7]): 0.19 ± 0.02 | Tv (tidal volume) (T8 SCI rats; [7]): 1.15 ± 0.21↓ ml | Ve (minute ventilation) (T8 SCI rats; [7]): 143.1 ± 28.1↓ ml/min | f (respiratory rate) (T8 SCI rats; [7]): 126.8 ± 14.4 breaths/min | Te (expiratory time) (T8 SCI rats; [8]): 0.32 ± 0.08↓ | Ti (inspiratory time) (T8 SCI rats; [8]): 0.32 ± 0.02 | Tv (tidal volume) (T8 SCI rats; [8]): 0.85 ± 0.14↓ ml | Ve (minute ventilation) (T8 SCI rats; [8]): 82.5 ± 10.9↓ ml/min | f (respiratory rate) (T8 SCI rats; [8]): 99.4 ± 9.1↑ breaths/min | Te (expiratory time) (T8 SCI rats; [9]): 0.28 ± 0.02↓ | Ti (inspiratory time) (T8 SCI rats; [9]): 0.31 ± 0.02 | Tv (tidal volume) (T8 SCI rats; [9]): 0.82 ± 0.11↓ ml | Ve (minute ventilation) (T8 SCI rats; [9]): 88.3 ± 13.3↓ ml/min | f (respiratory rate) (T8 SCI rats; [9]): 107.5 ± 1.9↑ breaths/min | Ti (inspiratory time) (T8 SCI rats; [10]): 0.17 ± 0.01 | Tv (tidal volume) (T8 SCI rats; [10]): 1.52 ± 0.08 mL | Ve (minute ventilation) (T8 SCI rats; [10]): 267.5 ± 21.8 mL/min | f (respiratory rate) (T8 SCI rats; [10]): 175.9 ± 9.7 breaths/min | Te (expiratory time) (T8 SCI rats; [11]): 0.25 ± 0.02↓ | Ti (inspiratory time) (T8 SCI rats; [11]): 0.19 ± 0.01 | Tv (tidal volume) (T8 SCI rats; [11]): 0.96 ± 0.08 mL | Ve (minute ventilation) (T8 SCI rats; [11]): 149.9 ± 15.6↑ ml/min | f (respiratory rate) (T8 SCI rats; [11]): 155.5 ± 8.7↑ breaths/min | Te (expiratory time) (T8 SCI rats; [12]): 0.47 ± 0.02 | Ti (inspiratory time) (T8 SCI rats; [12]): 0.18 ± 0.01 | Tv (tidal volume) (T8 SCI rats; [12]): 0.80 ± 0.06 mL | Ve (minute ventilation) (T8 SCI rats; [12]): 81.3 ± 10.9 mL/min | f (respiratory rate) (T8 SCI rats; [12]): 98.5±3.7 breaths/min and 98.5 ± 5.18 breaths/min | effect on SCI-induced abnormal respiratory pattern (T8 SCI rats; 7 days p.i., 8-OH-DPAT 250 μg/kg i.p.): restored this abnormal pattern of breathing to normal | Te (expiratory time) (T8 SCI rats; [13]): 0.17 ± 0.01 | Ti (inspiratory time) (T8 SCI rats; [13]): 0.16 ± 0.01 | Tv (tidal volume) (T8 SCI rats; [13]): 1.79 ± 0.35 mL | Ve (minute ventilation) (T8 SCI rats; [13]): 327.2 ± 53.7↑ ml/min | f (respiratory rate) (T8 SCI rats; [13]): 184.6 ± 6.6↑ breaths/min | Te (expiratory time) (T8 SCI rats; [14]): 0.26 ± 0.03↓ | Ti (inspiratory time) (T8 SCI rats; [14]): 0.16 ± 0.01 | Tv (tidal volume) (T8 SCI rats; [14]): 1.11 ± 0.05 mL | Ve (minute ventilation) (T8 SCI rats; [14]): 172.1 ± 17.1↑ ml/min | f (respiratory rate) (T8 SCI rats; [14]): 155.2 ± 8.9↑ breaths/min | Te (expiratory time) (T8 SCI rats; [15]): 0.32 ± 0.02↓ | Ti (inspiratory time) (T8 SCI rats; [15]): 0.15 ± 0.01 | Tv (tidal volume) (T8 SCI rats; [15]): 0.79 ± 0.04 mL | Ve (minute ventilation) (T8 SCI rats; [15]): 103.0 ± 2.1↑ ml/min | f (respiratory rate) (T8 SCI rats; [15]): 131.7 ± 7.7↑ breaths/min
